Laboratory results reported in ChEMBL document CHEMBL5230136, “A review: Biologically active 3,4-heterocycle-fused coumarins” (Eur J Med Chem, 2021).

What was measured:
Trichophyton rubrum = assay: Antifungal activity against Trichophyton rubrum assessed as zone of inhibition at 20 mg/ml; type: functional; settings: read-out: IZ
Staphylococcus aureus [1] = assay: Antibacterial activity against Staphylococcus aureus assessed as zone of inhibition at 20 mg/ml; type: functional; settings: read-out: IZ
Micrococcus luteus = assay: Antibacterial activity against Micrococcus luteus assessed as zone of inhibition at 20 mg/ml; type: functional; settings: read-out: IZ
Pseudomonas aeruginosa = assay: Antibacterial activity against Pseudomonas aeruginosa assessed as zone of inhibition at 20 mg/ml; type: functional; settings: read-out: IZ
Aspergillus flavus = assay: Antifungal activity against Aspergillus flavus assessed as zone of inhibition at 20 mg/ml; type: functional; settings: read-out: IZ
Bacillus cereus = assay: Antibacterial activity against Bacillus cereus assessed as zone of inhibition at 20 mg/ml; type: functional; settings: read-out: IZ
Serratia marcescens = assay: Antibacterial activity against Serratia marcescens assessed as zone of inhibition at 20 mg/ml; type: functional; settings: read-out: IZ
Scopulariopsis = assay: Antifungal activity against Scopulariopsis assessed as zone of inhibition at 20 mg/ml; type: functional; settings: read-out: IZ
Escherichia coli [2] = assay: Antibacterial activity against Escherichia coli assessed as zone of inhibition at 20 mg/ml; type: functional; settings: read-out: IZ
Fusarium oxysporum = assay: Antifungal activity against Fusarium oxysporum assessed as zone of inhibition at 20 mg/ml; type: functional; settings: read-out: IZ
Candida albicans = assay: Antifungal activity against Candida albicans assessed as zone of inhibition at 20 mg/ml; type: functional; settings: read-out: IZ
Geotrichum candidum = assay: Antifungal activity against Geotrichum candidum assessed as zone of inhibition at 20 mg/ml; type: functional; settings: read-out: IZ
Escherichia coli [3] = assay: Antibacterial activity against Escherichia coli assessed as zone of inhibition at 100 ug/ml; type: functional; settings: read-out: IZ
Staphylococcus aureus [4] = assay: Antibacterial activity against Staphylococcus aureus assessed as zone of inhibition at 100 ug/ml; type: functional; settings: read-out: IZ
Salmonella typhimurium = assay: Antibacterial activity against Salmonella typhimurium DT104 assessed as zone of inhibition at 100 ug/ml; type: functional, Salmonella enterica subsp. enterica serovar Typhimurium; settings: Salmonella enterica, read-out: IZ
Bacillus subtilis = assay: Antibacterial activity against Bacillus subtilis assessed as zone of inhibition at 100 ug/ml; type: functional; settings: read-out: IZ
MCF7 = assay: Cytotoxicity against human MCF7 cells […] by MTT reduction assay; type: functional, cell-based
HeLa = assay: cells; settings: Homo sapiens
Description: Cytotoxicity against human HeLa cells at 50 uM by MTT reduction assay

K562 = assay: cells; settings: Homo sapiens
Description: Cytotoxicity against human K562 cells at 50 uM by MTT reduction assay

LS180 = assay: cells; settings: Homo sapiens
Description: Cytotoxicity against human LS180 cells at 50 uM by MTT reduction assay

## CCOC(=O)c1sc2c(c1NC(=O)CNc1ccc(C)cc1)c(=O)oc1ccccc12
Trichophyton rubrum
  zone of inhibition at 20000 µg/mL: 0 mm
Staphylococcus aureus [1]
  zone of inhibition at 20000 µg/mL: 0 mm
Micrococcus luteus
  zone of inhibition at 20000 µg/mL: 0 mm
Pseudomonas aeruginosa
  zone of inhibition at 20000 µg/mL: 0 mm
Aspergillus flavus
  zone of inhibition at 20000 µg/mL: 0 mm
Bacillus cereus
  zone of inhibition at 20000 µg/mL: 0 mm
Serratia marcescens
  zone of inhibition at 20000 µg/mL: 0 mm
Scopulariopsis
  zone of inhibition at 20000 µg/mL: 0 mm
Escherichia coli [2]
  zone of inhibition at 20000 µg/mL: 0 mm
Fusarium oxysporum
  zone of inhibition at 20000 µg/mL: 0 mm
Candida albicans
  zone of inhibition at 20000 µg/mL: 13 mm
Geotrichum candidum
  zone of inhibition at 20000 µg/mL: 8 mm

## Cc1ccc2c(c1)oc(=O)c1c(-c3cn(-c4ccccc4)nc3-c3ccccc3)cc(-c3c(O)c(I)c(C)c(Cl)c3Cl)nc12
Escherichia coli [3]
  zone of inhibition at 100 µg/mL: 9 mm
Staphylococcus aureus [4]
  zone of inhibition at 100 µg/mL: 15 mm
Salmonella typhimurium
  zone of inhibition at 100 µg/mL: 12 mm
Bacillus subtilis
  zone of inhibition at 100 µg/mL: 12 mm

## Cc1ccc2c(c1)oc(=O)c1c(-c3cn(-c4ccccc4)nc3-c3ccccc3)cc(-c3c(O)c(Br)cc(Cl)c3Cl)nc12
Escherichia coli [3]
  zone of inhibition at 100 µg/mL: 19 mm
Staphylococcus aureus [4]
  zone of inhibition at 100 µg/mL: 21 mm
Salmonella typhimurium
  zone of inhibition at 100 µg/mL: 22 mm
Bacillus subtilis
  zone of inhibition at 100 µg/mL: 20 mm

## Cc1ccc2c(c1)oc(=O)c1c(-c3cn(-c4ccccc4)nc3-c3ccccc3)cc(-c3c(O)c(Cl)cc(I)c3O)nc12
Escherichia coli [3]
  zone of inhibition at 100 µg/mL: 20 mm
Staphylococcus aureus [4]
  zone of inhibition at 100 µg/mL: 19 mm
Salmonella typhimurium
  zone of inhibition at 100 µg/mL: 16 mm
Bacillus subtilis
  zone of inhibition at 100 µg/mL: 22 mm

## Cc1ccc2c(c1)oc(=O)c1c(-c3cn(-c4ccccc4)nc3-c3ccccc3)cc(-c3c(O)c(C)cc(I)c3O)nc12
Escherichia coli [3]
  zone of inhibition at 100 µg/mL: 18 mm
Staphylococcus aureus [4]
  zone of inhibition at 100 µg/mL: 15 mm
Salmonella typhimurium
  zone of inhibition at 100 µg/mL: 12 mm
Bacillus subtilis
  zone of inhibition at 100 µg/mL: 18 mm

## Cc1ccc2c(c1)oc(=O)c1c(-c3cn(-c4ccccc4)nc3-c3ccccc3)cc(-c3c(O)c(I)cc(Cl)c3Cl)nc12
Escherichia coli [3]
  zone of inhibition at 100 µg/mL: 18 mm
Staphylococcus aureus [4]
  zone of inhibition at 100 µg/mL: 16 mm
Salmonella typhimurium
  zone of inhibition at 100 µg/mL: 14 mm
Bacillus subtilis
  zone of inhibition at 100 µg/mL: 8 mm

## COc1ccc(-c2c3c(nc4c2c(=O)oc2ccccc24)CCCC3=O)cc1
MCF7
  IC50: 62 µM
HeLa
  IC50: 98.5 µM
K562
  IC50: > 100 µM
LS180
  IC50: > 100 µM

## Cc1cccc(-c2c3c(nc4c2c(=O)oc2ccccc24)CCCC3=O)c1
HeLa
  IC50: > 100 µM
K562
  IC50: 57.4 µM
LS180
  IC50: > 100 µM

## O=C1CCCc2nc3c(c(-c4ccc(Cl)cc4)c21)c(=O)oc1ccccc13
MCF7
  IC50: 41.8 µM
HeLa
  IC50: 37.7 µM
K562
  IC50: 37.5 µM
LS180
  IC50: > 100 µM

## CCOC(=O)c1sc2c(c1NC(=O)CCl)c(=O)oc1ccccc12
Trichophyton rubrum
  zone of inhibition at 20000 µg/mL: 0 mm
Staphylococcus aureus [1]
  zone of inhibition at 20000 µg/mL: 8 mm
Micrococcus luteus
  zone of inhibition at 20000 µg/mL: 0 mm
Pseudomonas aeruginosa
  zone of inhibition at 20000 µg/mL: 0 mm
Aspergillus flavus
  zone of inhibition at 20000 µg/mL: 0 mm
Bacillus cereus
  zone of inhibition at 20000 µg/mL: 0 mm
Serratia marcescens
  zone of inhibition at 20000 µg/mL: 0 mm
Scopulariopsis
  zone of inhibition at 20000 µg/mL: 0 mm
Escherichia coli [2]
  zone of inhibition at 20000 µg/mL: 0 mm
Fusarium oxysporum
  zone of inhibition at 20000 µg/mL: 0 mm
Candida albicans
  zone of inhibition at 20000 µg/mL: 10 mm
Geotrichum candidum
  zone of inhibition at 20000 µg/mL: 0 mm

## Cc1ccccc1-c1c2c(nc3c1c(=O)oc1ccccc13)CCCC2=O
MCF7
  IC50: > 100 µM
HeLa
  IC50: > 100 µM
K562
  IC50: > 100 µM
LS180
  IC50: > 100 µM

## Cc1ccc(-c2c3c(nc4c2c(=O)oc2ccccc24)CCCC3=O)cc1
MCF7
  IC50: 66.7 µM
HeLa
  IC50: 43.6 µM
K562
  IC50: 56.2 µM
LS180
  IC50: > 100 µM

## O=C1CCCc2nc3c(c(-c4ccc(Br)cc4)c21)c(=O)oc1ccccc13
MCF7
  IC50: 46.2 µM
HeLa
  IC50: 47.3 µM
K562
  IC50: 47.5 µM
LS180
  IC50: > 100 µM

## Cc1ccc2c(c1)oc(=O)c1c(-c3cn(-c4ccccc4)nc3-c3ccccc3)cc(-c3c(O)ccc(Cl)c3Cl)nc12
Escherichia coli [3]
  zone of inhibition at 100 µg/mL: 12 mm
Staphylococcus aureus [4]
  zone of inhibition at 100 µg/mL: 8 mm
Salmonella typhimurium
  zone of inhibition at 100 µg/mL: 10 mm
Bacillus subtilis
  zone of inhibition at 100 µg/mL: 10 mm

## Cc1ccc2c(c1)oc(=O)c1c(-c3cn(-c4ccccc4)nc3-c3ccccc3)cc(-c3c(O)ccc(Cl)c3O)nc12
Escherichia coli [3]
  zone of inhibition at 100 µg/mL: 21 mm
Staphylococcus aureus [4]
  zone of inhibition at 100 µg/mL: 19 mm
Salmonella typhimurium
  zone of inhibition at 100 µg/mL: 20 mm
Bacillus subtilis
  zone of inhibition at 100 µg/mL: 18 mm

## Cc1ccc2c(c1)oc(=O)c1c(-c3cn(-c4ccccc4)nc3-c3ccccc3)cc(-c3c(O)c(Cl)cc(Br)c3O)nc12
Escherichia coli [3]
  zone of inhibition at 100 µg/mL: 19 mm
Staphylococcus aureus [4]
  zone of inhibition at 100 µg/mL: 18 mm
Salmonella typhimurium
  zone of inhibition at 100 µg/mL: 12 mm
Bacillus subtilis
  zone of inhibition at 100 µg/mL: 16 mm
